Data as given in US20240376094A2, “SELECTIVE BCL-XL PROTAC COMPOUNDS AND METHODS OF USE” (Les Laboratoires Servier, priority 2021, published 2024).

Columns and labels:
Type in all cases: cell-based
[1] = tested on: MOLT-4 cells; assay: MOLT-4 cell viability, MTT assay; conditions: Homo sapiens, MOLT-4, 48 h
Summary of the method: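 MOLT-4 cells in RPMI 1640 with 10% FBS were exposed to compounds for 48 h at 9 concentrations (3.16-fold dilutions, triplicates). After 4 h with MTT and overnight SDS/HCl solubilisation, absorbance was read at 540 nm. IC50 came from four-parameter fits versus control, as the mean of ≥2 independent experiments.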

[2] = biological target: T1, Bcl-xL (Homo sapiens, UniProt Q07817); assay: HCT116 Bcl-xL degradation, capillary-based immunoassay (WES)
T1 construct: Measured levels of Bcl-xL protein of HCT116 cells treated with the tested compounds; host or cells: HCT116
Summary of the method: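 HCT116 cells treated 24 h with compound at 10/100 nM and/or 9-point dilution (quadruplicates), then lysed. Bcl-xL measured by capillary WES immunoassay, normalized to cofilin and expressed as % of untreated cells. DC50 from four-parameter curve fit.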

[3] = tested on: COR-L105; assay: CellTiter-Glo proliferation assay, COR-L105; conditions: Homo sapiens, COR-L105, 120 h, COR-L105, 5 days; for Emax: read-out: COR-L105 Span (max)
Method: (§1) The BCL-xL degrader compounds were tested against two endogenous cancer cell lines: • COR-L105: ECACC No. 92031918 cultured in RPMI-1640+10% FBS • NCI-H1650: (ATCC No. CRL-5883 cultured in RPMI-1640+10% FBS
(§2) The ability of the BCL-xL degrader low molecular weight compounds to inhibit cell proliferation and survival was assessed using the Promega CellTiter-Glo® proliferation assay.
(§3) Cell lines were cultured in media that is optimal for their growth at 5% CO2, 37° C. in a tissue culture incubator. Prior to seeding for the proliferation assay, the cells were split at least 2 days before the assay to ensure optimal growth density. On the day of seeding, adherent cells were lifted off tissue culture flasks using 0.25% trypsin. Cell viability and cell density were determined using a cell counter (Vi-Cell XR Cell Viability Analyzer, Beckman Coulter). Cells with higher than 85% viability were seeded for the assay.
(§4) The COR-105 cell line was seeded in white, clear bottom 384-well TC treated plates (Corning cat. #3765). Cells were seeded at a density of 1,000 cells per well in 45 μL of standard growth media. Plates were incubated at 5% CO2, 37° C. overnight in a tissue culture incubator. The NCI-H1650 cell line was seeded in black, clear round bottom 384-well ultra-low attachment spheroid microplates (Corning cat. #3830). Cells were seeded at a density of 3,000 cells per well in 45 uL of standard growth media. Plates were spun in a centrifuge for 5 minutes and 1,000 RPM. Plates were incubated at 5% CO2, 37° C. for 72 hours in a tissue culture incubator.
(§5) On the day of dosing, BCL-xL degrader low molecular weight compounds were prepared at 1 OX in standard growth media. The prepared drug treatments were then added to the cells resulting in final concentrations of 0.508 nM-10 μM and a final volume of 50 μL per well. Each drug concentration was tested in quadruplets. Plates were incubated at 5% CO2, 37° C. for 5 days in a tissue culture incubator.
(§6) For COR-L105 plates, cell viability was assessed through the addition of 25 μL of CellTiter Glo® (Promega, cat #G7573), a reagent which lyses cells and measures total adenosine triphosphate (ATP) content. Plates were incubated at room temperature for 10 minutes to stabilize luminescent signals prior to reading with a luminescence reader (EnVision Multilabel Plate Reader, PerkinElmer). For NCI-H1650 plates, cell viability was assessed through the addition of 40 μL of CellTiter Glo® 3D Cell Viability Assay substrate (Promega, cat #G9681), a reagent which lyses cells and measures total adenosine triphosphate (ATP) content. Wells were mixed thoroughly and plates were incubated at room temperature for 30 minutes to stabilize luminescent signals prior to reading using a luminescence reader (EnVision Multilabel Plate Reader, PerkinElmer).
(§7) To evaluate the effect of the drug treatments, luminescent counts from wells containing untreated cells (100% viability) were used to normalize treated samples. A variable slope model was applied to fit a nonlinear regression curve to the data in GraphPad PRISM version 7.02 software. IC50 and Amax values were extrapolated from the resultant curves. The concentrations of treatment required to inhibit 50% of cell growth or survival (IC50) were calculated with representative IC50 values of the cell lines tested summarized in Table 11.

[4] = tested on: NCI-H1650; assay: CellTiter-Glo 3D proliferation assay, NCI-H1650 spheroids; conditions: Homo sapiens, NCI-H1650, 120 h, 5 days; for Emax: read-out: NCI-H1650 Span (Amax)
Method: as §1, §2, §3, §4, §5, §6, §7

[5] = tested on: MOLT-4 cells; assay: MOLT-4 cell viability, CTG assay; conditions: MOLT-4, 48 h
Summary of the method: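 Cells grown in RPMI 1640 with 10% FBS at 37° C, 5% CO2, then exposed to compounds for 48 h (11-point 5-fold dilution, triplicates). ATP measured by CellTiter-Glo luminescence; IC50 from four-parameter fit versus control, mean of ≥2 independent experiments.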

[6] = biological target: T2, endogenous BCL-xL (Homo sapiens, UniProt Q07817); assay: Degradation of endogenous BCL-xL in COR-L105 (ProteinSimple Jess); conditions: COR-L105, 24 h, COR-L105, dose 300 nM, read-out: % BCL-xL vs. Untreated, COR-L105
T2 construct: endogenous in cells; host or cells: COR-L105 (ECACC No. 92031918); NCI-H1650 (ATCC No. CRL-5883)
Method: The BCL-xL degrader low molecular weight compounds were tested against two endogenous cancer cell lines: • COR-L105: ECACC No. 92031918 cultured in RPMI-1640+10% FBS • NCI-H1650: (ATCC No. CRL-5883 cultured in RPMI-1640+10% FBS
The ability of the BCL-xL degrader low molecular weight compounds to degrade endogenous BCL-xL was assessed using the ProteinSimple 2-40 kDa Jess Separation Module.
as §3, with “degradation” for “proliferation”
The COR-L105 and the NCI-H1650 cell line were seeded in 6-well clear TC-treated multiple well plates (Costar® cat. #3516). Cells were seeded at a density of 2,000,000 cells per well in 2.5 mL of standard growth media. Plates were incubated at 5% CO2, 37° C. overnight in a tissue culture incubator. On the day of dosing, BCL-xL degrader low molecular weight compounds and a BCL-xL inhibitor control were prepared at 6× in standard growth media. The prepared drug treatments were then added to the cells resulting in a final concentration of 100-300 nM and a final volume of 3.0 mL per well. A control well of untreated cells was also included in the study. Each drug concentration was tested in singlet. Plates were incubated at 5% CO2, 37° C. for 24 hours in a tissue culture incubator.
After 24 hours, the adherent cells were lifted off tissue culture plates using 0.25% trypsin. Standard growth media was added to quench the trypsin and centrifuged for 5 minutes at 1500 rpm. Cell pellets were washed once with cold PBS and centrifuged for 5 minutes at 1500 rpm. Cells were then washed with 1 mL cold PBS and transferred to a 1.5 mL eppendorf tube. Cells were centrifuged for 10 minutes at ≥10,000 g at 4° C. in a benchtop mini-centrifuge. The entire supernatant was discarded and cells were resuspended thoroughly in 50 μL of RIPA lysis buffer, generated by the manufacturer's protocol (ProteinSimple, Cat. #CBS401: Lysis Kit—RIPA Buffer for Charge Assays). Lysates were incubated on ice for 30 minutes. Following incubation, lysates were spun in a benchtop mini-centrifuge for 15 minutes at full speed at 4° C. Supernatant was carefully transferred to a new eppendorf tube for downstream analysis.
Protein was quantified using a Pierce™ BCA Protein Assay Kit (ThermoFisher, cat #23225) following the manufacturer's instructions. A standard curve was prepared by adding 25 μL of each concentration of reference samples from a Pierce™ Bovine Serum Albumin Standard Pre-Diluted Set (ThermoFisher, cat #23208). Each reference sample was run in duplicate. Testing samples were prepared by diluting cell lysates 1:5 in UltraPure™ DNase/RNase-Free Distilled Water and tested in duplicates of 25 μL each. The BCA working reagent was prepared by addition of 50 parts of BCA Reagent A with 1 part of BCA Reagent B. For each testing well, 200 μL of BCA working reagent was added. The plate was incubated at 37° C. for 30 minutes. A SpectraMax M Series Multi-Mode Microplate Reader was used to measure the absorbance at 562 nm. A standard curve generated by the Pierce™ Bovine Serum Albumin Standard Pre-Diluted Set was used to normalize and calculate the BCA concentration of cell lysates. Only values that fell within the range of the standard curve were accepted for quantification.
The ProteinSimple 2-40 kDa Jess Separation Module was used to detect BCL-xL degradation in treated versus untreated lysates following the manufacturer's instructions (25-Capillary Cartridge, 8 pack, 2-40 kDa, cat #SM W012). […]

T2 sequence (Q07817 whole entry): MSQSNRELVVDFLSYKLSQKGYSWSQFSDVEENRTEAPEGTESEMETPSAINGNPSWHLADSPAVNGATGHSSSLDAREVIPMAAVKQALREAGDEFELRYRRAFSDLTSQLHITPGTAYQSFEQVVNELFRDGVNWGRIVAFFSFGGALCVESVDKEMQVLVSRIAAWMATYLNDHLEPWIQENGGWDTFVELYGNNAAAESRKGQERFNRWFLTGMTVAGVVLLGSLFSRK
T1 sequence (Q07817 whole entry): as above

| IC50 [1] [nM] | DC50 ([2]; HCT116, 24 h, 9-point serial dilution) [nM] | remaining activity at 0.01 µM ([2]; HCT-116, HCT116, 10 nM, 24 h, % of untreated cells) [%] | remaining activity at 0.1 µM ([2]; HCT-116, HCT116, 100 nM, 24 h, % of untreated cells) [%] | IC50 [4] [nM] | IC50 [5] [nM] | remaining activity at 0.3 µM [6] [%] | SMILES | IC50 [3] [nM] | Emax [3] [%] | Emax [4] [%] |
| --- | --- | --- | --- | --- | --- | --- | --- | --- | --- | --- |
| 20.9 | > 316 | 63 | 51 | 56.9 | 26 | – | Cc1c(Nc2nc3ccccc3s2)nnc2c1CCCN2c1nc(C(=O)O)c(CCCOc2ccc(C#CCN3CCN(C(=O)CCCC(=O)NCCOCCNC(=O)COc4cccc5c4C(=O)N(C4CCC(=O)NC4=O)C5=O)CC3)cc2F)s1 (centres unmarked) [Example 26, 2-[3-(1,3-benzothiazol-2-ylamino)-4-methyl-6,7-dihydro-5H-pyrido[2,3-c]pyridazin-8-yl]-5-[3-[4-[3-[4-[5-[2-[2-[[2-[2-(2,6-dioxo-3-piperidyl)-1,3-dioxo-isoindolin-4-yl]oxyacetyl]amino]ethoxy]ethylamino]-5-oxo-pentanoyl]piperazin-1-yl]prop-1-ynyl]-2-fluoro-phenoxy]propyl]thiazole-4-carboxylic acid] | 212 | 88 | 70.1 |
| – | – | – | – | 7.67 | – | 74.5 | Cc1ncsc1-c1ccc([C@H](C)NC(=O)[C@@H]2C[C@@H](O)CN2C(=O)[C@@H](NC(=O)CCCCCC(=O)N2CCN(CC#Cc3ccc(OCCCc4sc(N5CCCc6c5nnc(Nc5nc7ccccc7s5)c6C)nc4C(=O)O)c(F)c3)CC2)C(C)(C)C)cc1 [Example 34, 2-(3-(benzo[d]thiazol-2-ylamino)-4-methyl-6,7-dihydropyrido [2,3-c]pyridazin-8(5H)-yl)-5-(3-(2-fluoro-4-(3-(4-(7-(((S)-1-((2S,4R)-4-hydroxy-2-(((S)-1-(4-(4-methylthiazol-5-yl)phenyl)ethyl)carbamoyl)pyrrolidin-1-yl)-3,3-dimethyl-1-oxobutan-2-yl)amino)-7-oxoheptanoyl)piperazin-1-yl)prop-1-yn-1-yl)phenoxy)propyl)thiazole-4-carboxylic acid] | 74.2 | 82.7 | 55.4 |
| – | – | – | – | 37.3 | – | > 90 | Cc1ncsc1-c1ccc([C@H](C)NC(=O)[C@@H]2C[C@@H](O)CN2C(=O)[C@@H](NC(=O)CN(C)CC(=O)N2CCN(CC#Cc3ccc(OCCCc4sc(N5CCCc6c5nnc(Nc5nc7ccccc7s5)c6C)nc4C(=O)O)c(F)c3)CC2)C(C)(C)C)cc1 [Example 36, 2-(3-(benzo[d]thiazol-2-ylamino)-4-methyl-6,7-dihydropyrido [2,3-c]pyridazin-8(5H)-yl)-5-(3-(2-fluoro-4-(3-(4-(N-(2-(((S)-1-((2S,4R)-4-hydroxy-2-(((S)-1-(4-(4-methylthiazol-5-yl)phenyl)ethyl)carbamoyl)pyrrolidin-1-yl)-3,3-dimethyl-1-oxobutan-2-yl)amino)-2-oxoethyl)-N-methylglycyl)piperazin-1-yl)prop-1-yn-1-yl)phenoxy)propyl) thiazole-4-carboxylic acid] | 296 | 94.1 | 68.3 |
| – | – | – | – | – | – | 58.3 | Cc1ncsc1-c1ccc(CNC(=O)[C@@H]2C[C@@H](O)CN2C(=O)[C@@H](NC(=O)C2(F)CC2)C(C)(C)C)c(OCC(=O)NCCCCC(=O)N2CCN(CC#Cc3ccc(OCCCc4sc(N5CCCc6c5nnc(Nc5nc7ccccc7s5)c6C)nc4C(=O)O)c(F)c3)CC2)c1 [Example 44, 2-(3-(benzo[d]thiazol-2-ylamino)-4-methyl-6,7-dihydropyrido [2,3-c]pyridazin-8(5H)-yl)-5-(3-(2-fluoro-4-(3-(4-(5-(2-(2-(((2S,4R)-1-((S)-2-(1-fluorocyclopropane-1-carboxamido)-3,3-dimethylbutanoyl)-4-hydroxypyrrolidine-2-carboxamido)methyl)-5-(4-methylthiazol-5-yl)phenoxy)acetamido)pentanoyl)piperazin-1-yl)prop-1-yn-1-yl)phenoxy)propyl)thiazole-4-carboxylic acid] | – | – | – |
